US20070248591A1, “Preventive/Therapeutic Drug for Arteriosclerosis” (TAKEDA PHARMACEUTICAL COMPANY LIMITED, priority 2004, published 2007)

Assays:
THP-1 cells [1] = assay: Cholesterol efflux activity in foamed THP-1 macrophage-like cells ([3H]cholesterol, apolipoprotein AI); format: cell-based; details: for Cholesterol Efflux Activity (%): mean ± standard deviation
Description: THP-1 cells (purchased from ATCC; Int. J. Cancer., 26, 171-176, 1980) seeded in a 12-well plate (Falcon) at 8.0×10^5/well were treated for 3 days in RPMI-1640 medium (supplemented with 10% FBS, 25 mM HEPES and penicillin/streptomycin) containing phorbol-12-myristate-13-acetate (PMA) (final concentration: 100 nM) to allow for differentiation into macrophage-like cells. After washing with PBS, serum-free RPMI-1640 containing [^3H] cholesterol-labeled βVLDL (final cholesterol level: 150 μg/ml) was added thereto and incubated for 24 hours to prepare foamed cells. After washing twice with 0.2% BSA-containing PBS and then once with PBS, serum-free RPMI-1640 media supplemented with 0, and 20 µM D-PDMP, respectively, were added to treat for 24 and 48 hours. The supernatant was removed and RPMI-1640 medium (final concentration: 25 μg/ml) containing human apolipoprotein AI (Chemicon) was added thereto. Six hours after, the radioactivity released into the supernatant was measured in a liquid scintillation counter. The cells were further washed once with PBS and then lysed in 0.1% SDS-containing 0.1 N NaOH aqueous solution. A part of the lysate was taken up and the radioactivity was measured in a liquid scintillation counter.
The activity in efflux of cholesterol was determined by the following equation: Cholesterol efflux activity (%)=Radioactivity in supernatant/(Radioactivity in supernatant+Radioactivity in cell lysate)×100
Cells were prepared as described in (1) above. After the foamed cells prepared were washed, serum-free RPMI-1640 media containing 10 μM of glucosylceramide (Matreya, Inc.) and lactosylceramide (CALBIOCHEM), respectively, were added to treat for 24 hours. The supernatant was removed and RPMI-1640 medium (final concentration: 25 μg/ml) containing human apolipoprotein AI (Chemicon) was added thereto. Six hours after, the cholesterol efflux activity was measured by the same method as described in (1) above.

THP-1 cells [2] = assay: DiI-labeled acetyl LDL (denatured lipoprotein) uptake activity in THP-1 cells, FACS; format: cell-based
Description: THP-1 cells (purchased from ATCC) seeded in a 6-well Low Cell Binding Plate (Nunc) at 1.5×10^6/well were treated for 2 days in RPMI-1640 medium (supplemented with 0.4% FBS, 25 mM HEPES and penicillin/streptomycin) containing phorbol-12-myristate-13-acetate (PMA) (final concentration: 100 nM) or in RPMI-1640 medium (supplemented with 0.4% FBS, 25 mM HEPES and penicillin/streptomycin) containing PMA (final concentration: 100 nM) and D-PDMP (final concentration: 20 μM). Next, the treated cells were washed with serum-free RPMI-1640 medium and then suspended in serum-free RPMI-1640 medium supplemented with DiI (1,1′-dioctadecyl-3,3,3′,3′-tetramethylindocarbocyanine)-labeled acetyl LDL (Funakoshi, final concentration: 20 μg/ml), followed by incubation at 37° C. for 90 minutes while shaking. After washing with PBS, the cells were suspended in Cellfix buffer (BD) and uptake of DiI-labeled acetyl LDL was analyzed on a FACScan (BD Bioscience). The intermediate value obtained by the FACS analysis of the cells treated with phorbol-12-myristate-13-acetate alone was made 100%, and relative values were determined under each condition.

phosphorylation of IRS-1 = details: J. Biol. Chem., 277, 3085-3092, 2002; cited from earlier work
[3] = biological target: T1, glucosylceramide synthase (Homo sapiens, UniProt Q16739); details: Glycoconjugate J., 13, 481-486, 1996; cited from earlier work
T1 sequence (Q16739 1-394): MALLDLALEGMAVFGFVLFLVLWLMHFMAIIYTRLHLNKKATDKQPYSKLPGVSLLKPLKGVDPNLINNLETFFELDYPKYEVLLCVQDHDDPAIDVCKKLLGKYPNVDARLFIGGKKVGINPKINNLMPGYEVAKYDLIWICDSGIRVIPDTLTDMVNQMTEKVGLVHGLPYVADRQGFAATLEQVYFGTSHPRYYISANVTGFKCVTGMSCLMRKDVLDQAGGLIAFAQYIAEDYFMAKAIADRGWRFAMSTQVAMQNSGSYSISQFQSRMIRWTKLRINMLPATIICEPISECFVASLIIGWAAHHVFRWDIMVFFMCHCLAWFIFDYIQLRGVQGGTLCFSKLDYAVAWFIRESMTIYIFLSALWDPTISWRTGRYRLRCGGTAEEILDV

[4] = tested on: lactosylceramide synthase; details: Glycoconjugate J., 13, 481-486, 1996; cited from earlier work
cells = details: J. Biochem. (Tokyo), 117, 766-773, 1995; cited from earlier work
[5] = biological target: T1, glucosylceramide synthase; assay: Glucosylceramide synthase enzyme assay ([14C]UDP-glucose, C8 ceramide, lysate of transfected HEK293 cells); format: biochemical; design: made in house; host or cells: HEK293 cells, transiently transfected with pcDNA3.1(-) vector; M-PER lysate, soluble fraction after 27,000 x g; details: calculated using SAS Preclinical Package, ver. 5
Description: Human glucosylceramide synthase gene was obtained from IMAGE clone 5274768 (Invitrogen). The reaction solution for the reaction was composed of 2 μl of plasmid DNA of IMAGE clone 5274768, 5 μl of 10×Pfu buffer (Stratagene), 1 μl of Hotstart Pfu (Stratagene), 1 μl each of 20 μM primers and 4 μl of 2.5 mM dNTP, to which 36 μl of distilled water was added to make the volume […]. After 2 minutes at 95° C., PCR was carried out by repeating 30 cycles, one set to include 95° C. for 30 seconds, 60° C. for 30 seconds and 72° C. for 2 minutes, followed by an extension at 72° C. for 10 minutes. […]
HEK293 cells (purchased from ATCC; J. Gen. Virol., 36, 59-74, 1977) were cultured in serum-containing DMEM medium and seeded in a 10 cm collagen coated plate (Iwaki Co.) at 1.2×10^6 on the previous day of gene transfer. […] Then, the chloroform layer was collected and the radioactivity was measured in a liquid scintillation counter. The activity value was determined by the following equation: Glucosylceramide synthase activity (%)=Radioactivity of the enzyme reaction product (cpm)/Specific radioactivity of [^14C]UDP-glucose (cpm/nmol)×1/amount of protein (mg)·reaction time (hr)
D-PDMP known to inhibit the glucosylceramide synthase activity was examined using the procedure described above. The IC50 was calculated using SAS Preclinical Package, ver. […]

[6] = tested on: human smooth muscle cells; details: added to the culture system; Biochem. Biophys. Res. Commun., 181, 554-61, 1991; cited from earlier work
human endothelial cells = details: added to the culture system; J. Biol. Chem., 273, 34349, 1998; cited from earlier work
[7] = exogenously added to the culture system, summary of TABLES 2 and 3

| Compound | Cholesterol Efflux Activity (%) (THP-1 cells [1]; D-PDMP 10 μM, 24 hrs. treatment, 0 μM control 1.7 ± 0.3) | Cholesterol Efflux Activity (%) (THP-1 cells [1]; D-PDMP 10 μM, 48 hrs. treatment, 0 μM control 2.1 ± 0.2) | Cholesterol Efflux Activity (%) (THP-1 cells [1]; D-PDMP 20 μM, 24 hrs. treatment, 0 μM control 1.7 ± 0.3) | Cholesterol Efflux Activity (%) (THP-1 cells [1]; D-PDMP 20 μM, 48 hrs. treatment, 0 μM control 2.1 ± 0.2) | Effect on cholesterol efflux activity (in words) (THP-1 cells [1]; summary of TABLE 1) | Acetyl LDL Uptake Activity (%) (THP-1 cells [2]; D-PDMP 20 μM with PMA 100 nM, 2 days, relative to PMA alone = 100%, mean ± standard deviation) | Effect on acetyl LDL uptake activity (in words) (THP-1 cells [2]; summary of TABLE 4) | Effect on the action of TNF-α that inhibits phosphorylation of IRS-1 (phosphorylation of IRS-1) | Inhibition of glucosylceramide synthase activity (in words) [3] | Inhibition of lactosylceramide synthase activity (in words) [4] | Depletion of glucosylceramide and lactosylceramide in cells (in words) (cells) | IC50 [5] [nM] | Cholesterol Efflux Activity (%) (THP-1 cells [1]; Glucosylceramide 10 μM, 24 hours, 0 μM control 3.6 ± 0.1) | Effect on cholesterol efflux activity (in words) (THP-1 cells [1]; [7]) | Cholesterol Efflux Activity (%) (THP-1 cells [1]; Lactosylceramide 10 μM, 24 hours, 0 μM control 4.3 ± 0.2) | Proliferation activity [6] | Expression of cell adhesion molecules such as ICAM-1 (human endothelial cells) |
| --- | --- | --- | --- | --- | --- | --- | --- | --- | --- | --- | --- | --- | --- | --- | --- | --- | --- |
| CCCCCCCCCC(=O)N[C@H](CN1CCOCC1)[C@H](O)c1ccccc1 [D-PDMP, D-threo-1-phenyl-2-decanoylamino-3-morpholino-1-propanol] | 4.4 ± 0.4 | 6.0 ± 0.4 | 4.3 ± 0.8 | 6.8 ± 0.5 | increased the cholesterol efflux activity concentration- and time-dependently | 28.9 ± 6.3^ % | suppressed the acetyl LDL uptake activity | suppresses the action of TNF-α that inhibits phosphorylation of IRS-1 | known to inhibit the activities | known to inhibit the activities | deplete glucosylceramide and lactosylceramide in cells in a concentration- and treating time-dependent manner | 1500 | – | – | – | – | – |
| Glucosylceramide | – | – | – | – | – | – | – | – | – | – | – | – | 3.2 ± 0.2 | suppressed | – | – | – |
| Lactosylceramide | – | – | – | – | – | – | – | – | – | – | – | – | – | suppressed | 2.3 ± 0.2 | the proliferation activity is increased | is increased in human endothelial cells |
